Measured values taken from patent US20220395472A1 (Dermavant Sciences GmbH, priority 2021, published 2022).

System: adults with plaque psoriasis
Assay: Long-term open-label extension study (PSOARING 3): Physician Global Assessment (PGA), treatment episodes, treatment success, remittive effect
Assay type: in vivo, human
Experimental: This extension study consisted of up to 40 weeks of treatment and a 4 week, safety follow up period.
At the completion of the Week 12 visit of the DB, pivotal Phase 3 study, eligibility of the subjects opting to enroll in this extension study was confirmed. Study visits during the treatment period for all subjects occurred every 4 weeks (±3 days). A phone call was performed at Week 2 (Day 15). Unscheduled visits may have occurred, as needed. Subjects who withdrew from this study before Week 40 returned to the study center for an Early Termination visit. The total duration of this extension study participation was 44 weeks. Subjects in this study were treated as follows based on their PGA score from the Week 12 visit in the DB, pivotal Phase 3 study (Study DMVT 505 3001 or Study DMVT 505 3002).
The PGA was used to assess the primary efficacy endpoint in this study. The PGA is a clinical tool for assessing the current state/severity of a subject's psoriasis at a given time point. It is a static, 5 point, morphological assessment of overall disease severity, as determined by the Investigator, using the clinical characteristics of erythema, scaling, and plaque thickness/elevation as guidelines; higher PGA scores represent more severe disease (0=clear, 1=almost clear, 2=mild, 3=moderate, and 4=severe). The BSA affected was not considered in scoring of the PGA. Variations of the PGA are frequently used in clinical studies because it is a simple assessment, similar to those used in clinical practice. The PGA was performed first, prior to the % BSA, PASI, and LTS assessments.
Time to event parameters, such as the time from treatment success to subsequent worsening (PGA≥2) or duration of treatment episode, were summarized by the Kaplan Meier product limit method using OC.

[1] = Baseline PGA = 0, Tapinarof (Pivotal) group
[2] = Baseline PGA = 0, Vehicle (Pivotal) group

Structure (SMILES): CC(C)c1c(O)cc(/C=C/c2ccccc2)cc1O [Tapinarof, 3,5-Dihydroxy-4-isopropyl-trans-stilbene]
- Average Duration of Episodes, Mean (SD) (Baseline PGA = 0, Overall): 91.4 (66.93) days
- Average Duration of Episodes, Median (Baseline PGA = 0, Overall): 63.0 days
- Average Duration of Treatment Success, Mean (SD) (Baseline PGA = 0, Overall): 124.2 (87.66) days
- Average Duration of Treatment Success, Median (Baseline PGA = 0, Overall): 98.0 days
- Duration of 1st Episode, Mean (SD) (Baseline PGA = 0, Overall): 92.9 (67.74) days
- Duration of 1st Episode, Median (Baseline PGA = 0, Overall): 65.0 days
- Duration of 1st Success, Mean (SD) (Baseline PGA = 0, Overall): 125.1 (91.87) days
- Duration of 1st Success, Median (Baseline PGA = 0, Overall): 112.0 days
- Duration of 2nd Episode, Mean (SD) (Baseline PGA = 0, Overall): 44.1 (25.97) days
- Duration of 2nd Episode, Median (Baseline PGA = 0, Overall): 42.0 days
- Duration of 2nd Success, Mean (SD) (Baseline PGA = 0, Overall): 87.6 (67.05) days
- Duration of 2nd Success, Median (Baseline PGA = 0, Overall): 71.0 days
- Duration of 3rd Episode, Mean (SD) (Baseline PGA = 0, Overall): 61.0 (NE) days
- Duration of 3rd Episode, Median (Baseline PGA = 0, Overall): 61.0 days
- Duration of 3rd Success, Mean (SD) (Baseline PGA = 0, Overall): 33.0 (29.76) days
- Duration of 3rd Success, Median (Baseline PGA = 0, Overall): 28.0 days
- Duration of Last Episode, Mean (SD) (Baseline PGA = 0, Overall): 89.9 (68.95) days
- Duration of Last Episode, Median (Baseline PGA = 0, Overall): 63.0 days
- Duration of Last Success, Mean (SD) (Baseline PGA = 0, Overall): 121.6 (98.44) days
- Duration of Last Success, Median (Baseline PGA = 0, Overall): 112.0 days
- Total Duration of Treatment Episodes, Mean (SD) (Baseline PGA = 0, Overall): 109.2 (61.94) days
- Total Duration of Treatment Episodes, Median (Baseline PGA = 0, Overall): 94.0 days
- Total Duration of Treatment Success, Mean (SD) (Baseline PGA = 0, Overall): 167.9 (84.48) days
- Total Duration of Treatment Success, Median (Baseline PGA = 0, Overall): 170.0 days
- Average Duration of Episodes, Mean (SD) [1]: 90.2 (65.67) days
- Average Duration of Episodes, Median [1]: 63.0 days
- Average Duration of Treatment Success, Mean (SD) [1]: 119.7 (82.74) days
- Average Duration of Treatment Success, Median [1]: 98.0 days
- Duration of 1st Episode, Mean (SD) [1]: 91.7 (66.66) days
- Duration of 1st Episode, Median [1]: 65.0 days
- Duration of 1st Success, Mean (SD) [1]: 120.3 (87.83) days
- Duration of 1st Success, Median [1]: 112.0 days
- Duration of 2nd Episode, Mean (SD) [1]: 44.9 (26.43) days
- Duration of 2nd Episode, Median [1]: 43.0 days
- Duration of 2nd Success, Mean (SD) [1]: 89.1 (67.03) days
- Duration of 2nd Success, Median [1]: 71.0 days
- Duration of 3rd Episode, Mean (SD) [1]: 61.0 (NE) days
- Duration of 3rd Episode, Median [1]: 61.0 days
- Duration of 3rd Success, Mean (SD) [1]: 36.2 (29.31) days
- Duration of 3rd Success, Median [1]: 28.5 days
- Duration of Last Episode, Mean (SD) [1]: 88.8 (67.68) days
- Duration of Last Episode, Median [1]: 63.0 days
- Duration of Last Success, Mean (SD) [1]: 118.0 (93.58) days
- Duration of Last Success, Median [1]: 112.0 days
- Total Duration of Treatment Episodes, Median [1]: 94.0 days
- Total Duration of Treatment Success, Mean (SD) [1]: 164.3 (82.24) days
- Total Duration of Treatment Success, Median [1]: 168.0 days
- Average Duration of Episodes, Mean (SD) [2]: 122.8 (124.80) days
- Average Duration of Episodes, Median [2]: 122.8 days
- Average Duration of Treatment Success, Mean (SD) [2]: 191.0 (136.91) days
- Average Duration of Treatment Success, Median [2]: 280.0 days
- Duration of 1st Episode, Mean (SD) [2]: 126.0 (120.21) days
- Duration of 1st Episode, Median [2]: 126.0 days
- Duration of 1st Success, Mean (SD) [2]: 195.2 (130.61) days
- Duration of 1st Success, Median [2]: 280.0 days
- Duration of 2nd Episode, Mean (SD) [2]: 28.0 (NE) days
- Duration of 2nd Episode, Median [2]: 28.0 days
- Duration of 2nd Success, Mean (SD) [2]: 63.5 (88.39) days
- Duration of 2nd Success, Median [2]: 63.5 days
- Duration of 3rd Success, Mean (SD) [2]: 1.0 (NE) days
- Duration of 3rd Success, Median [2]: 1.0 days
- Duration of Last Episode, Mean (SD) [2]: 119.5 (129.40) days
- Duration of Last Episode, Median [2]: 119.5 days
- Duration of Last Success, Mean (SD) [2]: 174.4 (158.72) days
- Duration of Last Success, Median [2]: 280.0 days
- Total Duration of Treatment Episodes, Mean (SD) [2]: 140.0 (100.41) days
- Total Duration of Treatment Episodes, Median [2]: 140.0 days
- Total Duration of Treatment Success, Mean (SD) [2]: 220.8 (109.21) days
- Total Duration of Treatment Success, Median [2]: 280.0 days
- Average Duration of Episodes, Mean (SD) (Baseline PGA = 1, Overall): 140.1 (95.01) days
- Average Duration of Episodes, Median (Baseline PGA = 1, Overall): 112.0 days
- Average Duration of Treatment Success, Median (Baseline PGA = 1, Overall): 98.0 days
- Duration of 1st Episode, Mean (SD) (Baseline PGA = 1, Overall): 133.5 (100.06) days
- Duration of 1st Episode, Median (Baseline PGA = 1, Overall): 87.0 days
- Duration of 1st Success, Mean (SD) (Baseline PGA = 1, Overall): 107.2 (76.62) days
- Duration of 1st Success, Median (Baseline PGA = 1, Overall): 90.0 days
- Duration of 2nd Episode, Mean (SD) (Baseline PGA = 1, Overall): 98.4 (61.51) days
- Duration of 2nd Episode, Median (Baseline PGA = 1, Overall): 85.0 days
- Duration of 2nd Success, Mean (SD) (Baseline PGA = 1, Overall): 75.4 (59.40) days
- Duration of 2nd Success, Median (Baseline PGA = 1, Overall): 56.0 days
- Duration of 3rd Episode, Mean (SD) (Baseline PGA = 1, Overall): 54.9 (56.83) days
- Duration of 3rd Episode, Median (Baseline PGA = 1, Overall): 28.0 days
